Experimental data published in patent US20250154154A1 (Relay Binney Street, 2nd Floor, priority 2020, published 2025).

What was measured:
RBE cells = test: Cell Viability Protocol (CellTiterGlo), RBE cells; format: cell-based; details: RBE or SNU-1079 cells, 72 or 120 hour, cell line and time not given
Procedure: RBE or SNU-1079 cells were cultured in T-75 or T-175 flasks at 37° C., 5% CO2, 95% relative humidity in RPMI 1640 medium with 10% FBS and 1% Penicillin/Streptomycin (media) and detached with 0.25% trypsin/EDTA at 80-90% confluency. Cells were then seeded in 40 μL media per well in 384-well flat-bottom polystyrene microplates (Corning Cat. No. 3570) at a seeding density of 1200 cells/well and incubated for 24 hours at 37° C. with 5% CO2, 95% relative humidity. On the next day, test compounds were prepared in 10 mM DMSO stock solution and diluted to the indicated concentrations in a 384-well compound source plate. DMSO was employed as a vehicle control. Compounds (40 nL) were transferred to 384-well cell culture plate(s) using the liquid handler Echo550. Plates were incubated at 37° C. with 5% CO2 for 72 hour or 120 hour (as indicated). CellTiterGlo reagent was warmed to 37° C. and added into each well (40 μL per well). Plates were incubated at room temperature for 30 min followed by reading on the EnSpire or EnVision plate reader. Relative viability (% remaining activity) was calculated relative to DMSO control and IC50 values were obtained from dose-response data fitted to a 4-parameter curve.

SRC = SRC (Homo sapiens, UniProt P12931); test: SRC Biochemical Assay Protocol (microfluidic mobility shift assay, FLPeptide4 substrate)
Sequence of SRC (P12931 whole entry, species assumed): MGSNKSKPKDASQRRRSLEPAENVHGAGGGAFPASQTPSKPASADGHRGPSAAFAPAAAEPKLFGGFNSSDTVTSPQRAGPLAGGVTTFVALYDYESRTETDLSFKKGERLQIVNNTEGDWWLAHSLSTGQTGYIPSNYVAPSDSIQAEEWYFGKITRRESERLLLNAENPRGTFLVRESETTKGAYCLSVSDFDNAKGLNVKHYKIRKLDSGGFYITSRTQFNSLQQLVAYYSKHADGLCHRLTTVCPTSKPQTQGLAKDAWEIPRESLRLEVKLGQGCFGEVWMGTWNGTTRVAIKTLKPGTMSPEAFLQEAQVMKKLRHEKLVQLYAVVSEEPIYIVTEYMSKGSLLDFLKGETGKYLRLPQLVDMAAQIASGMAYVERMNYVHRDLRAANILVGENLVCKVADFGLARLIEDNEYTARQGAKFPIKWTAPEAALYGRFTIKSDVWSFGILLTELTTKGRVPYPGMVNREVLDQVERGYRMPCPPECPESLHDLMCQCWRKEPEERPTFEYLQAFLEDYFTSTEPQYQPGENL
Procedure: SRC Biochemical Assay Protocol
Src biochemical kinase activity was measured using a surrogate fluorescent peptide substrate [FLPeptide4; 5-FAM-EGIYGVLFKKK-CONH2 (PerkinElmer Cat. No. 760348)] with a microfluidic mobility shift assay. Reactions were performed in 384-well flat bottom polystyrene microplates (Corning Cat. No. 3570) at a final volume of 20 μL in 50 mM HEPES pH 7.4, 1 mM EGTA, 10 mM MgCl2, 0.01% Brij-35, 2 mM DTT, 0.05% BSA, 1% DMSO. Inhibition experiments were performed with compounds of the invention varying from 0.0017-100 μM with 0.26 nM SRC, 1.5 μM FLPeptide4, and 50 μM ATP. Specifically, 15 μl 1.3× mixtures of SRC+FLPeptide4+compounds were preincubated for 30 minutes at room temperature followed by addition of 5 μL 4×ATP. Reactions were carried out for 90 minutes then quenched with 40 μl 500 mM EDTA. Phosphorylated peptide product was measured with a mobility shift assay using a LabChip® EZ Reader system (PerkinElmer Cat. No. 122919). Inhibition ratios were calculated relative to neutral controls and IC50 values were obtained from dose response data fitted to a 4-parameter logistic model.

Row | IC50 (SRC) [nM] | Compound | IC50 (RBE cells) [nM]
1 | 10 to 1000 | CC(=O)N1CCC(C#Cc2c(-c3ccc(Oc4ccccc4)cc3)c3c(N)ncnc3n2C(C)C)CC1 [II-139, 1-(4-((4-amino-7-isopropyl-5-(4-phenoxyphenyl)-7H-pyrrolo[2,3-d]pyrimidin-6-yl)ethynyl)piperidin-1-yl)ethanone] | 10 to 1000
2 | 10 to 1000 | CC(C)n1c(C#CC2CCN(C(=O)CCl)CC2)c(-c2ccc(Oc3ccccc3)cc2)c2c(N)ncnc21 [Example I-29] | 10 to 1000
3 | 10 to 1000 | C=CC(=O)N1CCC(C#Cc2c(-c3ccc(Oc4ccccc4)cc3)c3c(N)ncnc3n2C(C)c2ncon2)CC1 (stereo not drawn) [Example I-59] | 10 to 1000
4 | 10 to 1000 | C=CC(=O)N1CCC(C#Cc2c(-c3cnc(Oc4ccccc4)cn3)c3c(N)ncnc3n2C(C)C)CC1 [Example I-65] | 10 to 1000
5 | 10 to 1000 | C=CC(=O)N1CCC(N2CC(C#Cc3c(-c4ccc(Oc5ccccn5)cc4)c4c(N)ncnc4n3C)C2)C[C@H]1CO (stereo partly drawn) [II-244, 1-((2S)-4-(3-((4-amino-7-methyl-5-(4-(pyridin-2-yloxy)phenyl)-7H-pyrrolo[2,3-d]pyrimidin-6-yl)ethynyl)azetidin-1-yl)-2-(hydroxymethyl)piperidin-1-yl)prop-2-en-1-one] | 10 to 1000
6 | 10 to 1000 | CN(C)C/C=C/C(=O)N1CCC(O)(C#Cc2c(-c3ccc(Oc4ccccc4)cc3)c3c(N)ncnc3n2C2CCOC2)CC1 (stereo not drawn) [Example I-68] | 10 to 1000
7 | 10 to 1000 | C=CC(=O)N1CCC(C#Cc2c(-c3ccc(Oc4ccccc4)cc3)c3c(N)ncnc3n2C(C)c2noc(COC)n2)CC1 (stereo not drawn) [Example I-58] | 10 to 1000
8 | ≤ 10 | CC(CO)N1CCC(C#Cc2c(-c3ccc(Oc4ccccc4)cc3)c3c(N)ncnc3n2C(C)C)CC1 (stereo not drawn) [II-146, 2-(4-((4-amino-7-isopropyl-5-(4-phenoxyphenyl)-7H-pyrrolo[2,3-d]pyrimidin-6-yl)ethynyl)piperidin-1-yl)propan-1-ol] | 10 to 1000
9 | 10 to 1000 | COc1cc(-c2c(C#C[C@@H]3[C@H]4CN(C(=O)/C=C/CN(C)C)C[C@@H]34)n(C)c3ncnc(N)c23)ccc1Oc1ccccn1 [II-233, (E)-1-((1R,5S,6s)-6-((4-amino-5-(3-methoxy-4-(pyridin-2-yloxy)phenyl)-7-methyl-7H-pyrrolo[2,3-d]pyrimidin-6-yl)ethynyl)-3-azabicyclo[3.1.0]hexan-3-yl)-4-(dimethylamino) but-2-en-1-one] | 10 to 1000
10 | 10 to 1000 | CN(C)C/C=C/C(=O)N1CC(C#Cc2c(-c3ccc(Oc4ccccc4)cc3)c3c(N)ncnc3n2C2CCOC2)C1 (stereo not drawn) [Example I-67] | 10 to 1000
11 | 10 to 1000 | C=CC(=O)N1CCC(C#Cc2cn3ncnc(N)c3c2-c2ccc(Oc3ccccc3)cc2)CC1 [Example I-64] | 1000 to 10000
12 | 10 to 1000 | CC(C)n1c(C#CC2CCN(C(CO)c3ccccc3)CC2)c(-c2ccc(Oc3ccccc3)cc2)c2c(N)ncnc21 (stereo not drawn) [II-143, 2-(4-((4-amino-7-isopropyl-5-(4-phenoxyphenyl)-7H-pyrrolo[2,3-d]pyrimidin-6-yl)ethynyl)piperidin-1-yl)-2-phenylethanol] | 1000 to 10000
13 | 10 to 1000 | CC(c1ccccc1)N1CCC(C#Cc2c(-c3ccc(Oc4ccccc4)cc3)c3c(N)ncnc3n2C(C)C)CC1 (stereo not drawn) [II-144, 7-isopropyl-5-(4-phenoxyphenyl)-6-((1-(1-phenylethyl)piperidin-4-yl)ethynyl)-7H-pyrrolo[2,3-d]pyrimidin-4-amine] | 1000 to 10000
14 | 10 to 1000 | C=CC(=O)N1CCC(C#Cc2c(-c3ccc(Oc4ccccc4)cc3)c3c(N)ncnc3n2C(C)C)(OC)CC1 [Example I-35] | 10 to 1000
15 | 10 to 1000 | CC(C)n1c(C#CC2CCN(Cc3ccccc3)CC2)c(-c2ccc(Oc3ccccc3)cc2)c2c(N)ncnc21 [II-145, 6-((1-benzylpiperidin-4-yl)ethynyl)-7-isopropyl-5-(4-phenoxyphenyl)-7H-pyrrolo[2,3-d]pyrimidin-4-amine] | 1000 to 10000
16 | 10 to 1000 | COc1cc(Oc2cccc(C)n2)ccc1-c1c(C#C[C@@H]2[C@H]3CN(C(=O)/C=C/CN4CCC(F)C4)C[C@@H]23)n(C)c2ncnc(N)c12 (stereo partly drawn) [II-236, (E)-1-((1R,5S,6s)-6-((4-amino-5-(2-methoxy-4-((6-methylpyridin-2-yl)oxy)phenyl)-7-methyl-7H-pyrrolo[2,3-d]pyrimidin-6-yl)ethynyl)-3-azabicyclo[3.1.0]hexan-3-yl)-4-(3-fluoropyrrolidin-1-yl)but-2-en-1-one] | 10 to 1000
17 | ≤ 10 | CC(C)n1c(C#CC2CCN(CCO)CC2)c(-c2ccc(Oc3ccccc3)cc2)c2c(N)ncnc21 [II-147, 2-(4-((4-amino-7-isopropyl-5-(4-phenoxyphenyl)-7H-pyrrolo[2,3-d]pyrimidin-6-yl)ethynyl)piperidin-1-yl)ethanol] | 10 to 1000
18 | 10 to 1000 | COc1cc(-c2c(C#C[C@@H]3[C@H]4CN(C(=O)/C=C/CN5CCC(F)C5)C[C@@H]34)n(C)c3ncnc(N)c23)ccc1Oc1ccccn1 (stereo partly drawn) [II-47] | 10 to 1000
19 | 10 to 1000 | C=CC(=O)N1CCC(C#Cc2c(-c3ccc(Oc4ccccc4)cn3)c3c(N)ncnc3n2C(C)C)CC1 [Example I-55] | 10 to 1000

Row | IC50 (SRC) [nM] | Compound | IC50 (RBE cells) [nM]
20 | 1000 to 10000 | C=CC(=O)N1C[C@@H]2[C@@H](C#Cc3c(Br)c4c(N)ncnc4n3C(C)C)[C@@H]2C1 [III-5] | 1000 to 10000
21 | 10 to 1000 | C=CC(=O)N1CCC(O)(C#Cc2c(-c3ccc(Oc4ccccc4F)cc3)c3c(N)ncnc3n2C)CC1 [Example I-66] | 10 to 1000
22 | ≤ 10 | CC(C)n1c(C#CC2CCNCC2)c(-c2ccc(Oc3ccccc3)cc2)c2c(N)ncnc21 [II-137, 7-isopropyl-5-(4-phenoxyphenyl)-6-(piperidin-4-ylethynyl)-7H-pyrrolo[2,3-d]pyrimidin-4-amine] | 1000 to 10000
23 | ≤ 10 | CC(C)n1c(C#CC2CCC(C(=O)O)CC2)c(-c2ccc(Oc3ccccc3)cc2)c2c(N)ncnc21 (stereo not drawn) [II-138, 4-((4-amino-7-isopropyl-5-(4-phenoxyphenyl)-7H-pyrrolo[2,3-d]pyrimidin-6-yl)ethynyl) cyclohexanecarboxylic acid] | 10 to 1000
24 | 1000 to 10000 | C=CC(=O)N1CCC(C#Cc2c(-c3cnc(Oc4ccccc4)nc3)c3c(N)ncnc3n2C(C)C)CC1 [Example I-13] | –
25 | 10 to 1000 | C=CC(=O)N1CCC(N2CC(C#Cc3c(-c4ccc(Oc5cccc(C)n5)c(OC)c4)c4c(N)ncnc4n3C3CCOC3)C2)CC1 (stereo not drawn) [II-125] | –
26 | 10 to 1000 | C=CC(=O)N1CCC(N2CC(C#Cc3c(-c4ccc(Oc5cccc(C)n5)c5c4OCO5)c4c(N)ncnc4n3C)C2)CC1 [III-90] | –
27 | 10 to 1000 | C=C(C)C(=O)N1CCC(O)(C#Cc2c(-c3ccc(Oc4ccccc4)cc3)c3c(N)ncnc3n2C)CC1 [III-35] | –
28 | 10 to 1000 | CC#CC(=O)N1CCC(C#Cc2c(-c3ccc(Oc4ccccc4)cc3)c3c(N)ncnc3n2C(C)C)CC1 [Example I-18] | –
29 | 10 to 1000 | CN(C)C/C=C/C(=O)N1CCC(C#Cc2c(-c3ccc(Oc4ccccc4)cc3)c3c(N)ncnc3n2C2CCOC2)CC1 (stereo not drawn) [III-10] | –
30 | 10 to 1000 | C=CC(=O)N1CCC(N2CC(C#Cc3c(-c4ccc(Oc5ccccc5)c(C)c4)c4c(N)ncnc4n3C)C2)CC1 [III-83] | –
31 | 10 to 1000 | C=CC(=O)N(C)CC(=O)N1CCC(C#Cc2c(-c3ccc(Oc4ccccc4)cc3)c3c(N)ncnc3n2C)CC1 [III-43] | –
32 | 10 to 1000 | Cn1c(C#CC2(O)CCN(C(=O)/C=C/CN3CCC3)CC2)c(-c2ccc(Oc3ccccc3)cc2)c2c(N)ncnc21 [III-50] | –
33 | 10 to 1000 | C=CC(=O)N[C@H]1CC[C@@H](C#Cc2c(-c3ccc(Oc4ccccc4)cc3)c3c(N)ncnc3n2C)CC1 [III-57] | –
34 | 10 to 1000 | C=CC(=O)N1CCC(N2CC(F)(C#Cc3c(-c4ccc(Oc5cccc(C)n5)c(OC)c4)c4c(N)ncnc4n3C)C2)C[C@H]1COC (stereo partly drawn) [III-92] | –
35 | ≤ 10 | C=CS(=O)(=O)NC1CCC(C#Cc2c(-c3ccc(Oc4ccccc4)cc3)c3c(N)ncnc3n2C(C)C)CC1 (stereo not drawn) [Example I-43] | –
36 | 10 to 1000 | COC(=O)C(C)n1c(C#CC2CCNCC2)c(-c2ccc(Oc3ccccc3)cc2)c2c(N)ncnc21 (stereo not drawn) [II-154, methyl 2-(4-amino-5-(4-phenoxyphenyl)-6-(piperidin-4-ylethynyl)-7H-pyrrolo[2,3-d]pyrimidin-7-yl)propanoate] | –
37 | 10 to 1000 | C=CC(=O)N1CCC(C#Cc2c(-c3ccc(OCC4CCCC4)cc3)c3c(N)ncnc3n2C(C)C)CC1 [Example I-16] | –
